Experimental data taken from the CheMixHub viscosity set.
± gives the uncertainty stated by the source.

Assay: xn = mol fraction of the nth substance listed

NCCCN + OCCOCCOCCOCCO
viscosity [mPa·s], 101.33 kPa
Conditions	293.15 K	298.15 K	303.15 K	308.15 K	313.15 K	318.15 K
x2 = 0.0197	2.27 ± 0.07	1.95 ± 0.06	1.76 ± 0.05	1.6 ± 0.05	1.31 ± 0.04	1.26 ± 0.04
x2 = 0.0407	2.72 ± 0.08	2.32 ± 0.07	2.08 ± 0.06	1.86 ± 0.06	–	1.48 ± 0.05
x2 = 0.0631	3.37 ± 0.1	2.84 ± 0.09	2.52 ± 0.08	2.25 ± 0.07	1.97 ± 0.06	1.75 ± 0.05
x2 = 0.0871	4.07 ± 0.13	3.41 ± 0.11	2.99 ± 0.09	2.64 ± 0.08	2.34 ± 0.07	2.08 ± 0.06
x2 = 0.1129	5.06 ± 0.16	4.2 ± 0.13	3.64 ± 0.11	3.21 ± 0.1	2.83 ± 0.09	2.48 ± 0.08
x2 = 0.1406	6.38 ± 0.2	5.25 ± 0.16	4.48 ± 0.14	3.92 ± 0.12	3.42 ± 0.11	3 ± 0.09
x2 = 0.1705	8.2 ± 0.26	6.64 ± 0.21	5.62 ± 0.18	4.86 ± 0.15	4.2 ± 0.13	3.62 ± 0.11
x2 = 0.2028	10.6 ± 0.33	8.44 ± 0.26	7.08 ± 0.22	6.05 ± 0.19	5.2 ± 0.16	4.42 ± 0.14
x2 = 0.238	13.9 ± 0.44	10.9 ± 0.34	9.08 ± 0.29	7.62 ± 0.24	6.48 ± 0.2	5.45 ± 0.17
x2 = 0.2762	18.5 ± 0.59	14.2 ± 0.45	11.6 ± 0.37	9.67 ± 0.3	8.11 ± 0.26	6.84 ± 0.21
x2 = 0.3181	24.6 ± 0.79	18.7 ± 0.6	15.1 ± 0.48	12.4 ± 0.39	10.3 ± 0.32	8.42 ± 0.26
x2 = 0.3641	33.1 ± 1.1	24.9 ± 0.79	19.6 ± 0.62	15.8 ± 0.5	12.8 ± 0.4	10.5 ± 0.33
x2 = 0.4148	43.8 ± 1.4	32.6 ± 1	25.2 ± 0.8	20.1 ± 0.63	16.1 ± 0.51	13 ± 0.41
x2 = 0.4711	57.6 ± 1.8	41.4 ± 1.3	31.7 ± 1	24.9 ± 0.78	19.7 ± 0.62	15.8 ± 0.49
x2 = 0.5338	71.2 ± 2.2	50.7 ± 1.6	38.4 ± 1.2	30 ± 0.93	23.5 ± 0.73	18.7 ± 0.58
x2 = 0.6042	81.6 ± 2.6	57.9 ± 1.8	43.7 ± 1.4	34 ± 1.1	26.8 ± 0.83	21 ± 0.65
x2 = 0.6838	85.1 ± 2.7	60.9 ± 1.9	46 ± 1.4	36 ± 1.1	28.4 ± 0.87	22.4 ± 0.69
x2 = 0.7745	81.2 ± 2.6	59.1 ± 1.8	45 ± 1.4	35.5 ± 1.1	28.3 ± 0.87	22.5 ± 0.69
x2 = 0.8788	71.9 ± 2.2	53.1 ± 1.6	41 ± 1.3	32.7 ± 1	26.4 ± 0.81	21.1 ± 0.65

COCCOCCOC + CCCO
viscosity [mPa·s]
Conditions	298.15 K	308.15 K	318.15 K
101 kPa, x1 = 0.0121	1.856 ± 0.056	1.451 ± 0.045	–
101 kPa, x1 = 0.0768	1.559 ± 0.048	1.243 ± 0.039	–
101 kPa, x1 = 0.1011	1.451 ± 0.019	1.173 ± 0.015	0.956 ± 0.013
101 kPa, x1 = 0.1288	1.399 ± 0.043	1.144 ± 0.036	–
101 kPa, x1 = 0.1895	1.272 ± 0.04	1.052 ± 0.034	–
101 kPa, x1 = 0.1997	1.243 ± 0.016	1.021 ± 0.013	0.847 ± 0.011
101 kPa, x1 = 0.2359	1.213 ± 0.038	1.004 ± 0.032	–
101 kPa, x1 = 0.2801	1.183 ± 0.037	0.971 ± 0.031	–
101 kPa, x1 = 0.3029	1.115 ± 0.014	0.927 ± 0.012	0.779 ± 0.011
101 kPa, x1 = 0.3162	1.133 ± 0.036	0.951 ± 0.031	–
101 kPa, x1 = 0.3322	1.12 ± 0.036	0.939 ± 0.031	–
101 kPa, x1 = 0.3923	1.08 ± 0.034	0.918 ± 0.03	–
101 kPa, x1 = 0.4025	1.046 ± 0.014	0.878 ± 0.012	0.743 ± 0.01
101 kPa, x1 = 0.4477	1.051 ± 0.034	0.899 ± 0.029	–
101 kPa, x1 = 0.4978	1.032 ± 0.033	0.886 ± 0.029	–
101 kPa, x1 = 0.5004	1.01 ± 0.013	0.852 ± 0.011	0.729 ± 0.01
101 kPa, x1 = 0.5784	1.011 ± 0.033	0.871 ± 0.029	–
101 kPa, x1 = 0.5992	0.988 ± 0.013	0.838 ± 0.011	0.717 ± 0.01
101 kPa, x1 = 0.6325	1.003 ± 0.032	0.854 ± 0.028	–
101 kPa, x1 = 0.6934	0.975 ± 0.013	0.828 ± 0.011	0.709 ± 0.01
101 kPa, x1 = 0.7544	0.991 ± 0.032	0.86 ± 0.028	–
101 kPa, x1 = 0.8004	0.971 ± 0.012	0.825 ± 0.011	0.709 ± 0.01
101 kPa, x1 = 0.813	0.991 ± 0.032	0.862 ± 0.028	–
101 kPa, x1 = 0.8974	0.981 ± 0.013	0.836 ± 0.011	–
101 kPa, x1 = 0.9026	0.993 ± 0.032	0.863 ± 0.028	–
101 kPa, x1 = 0.9638	0.996 ± 0.032	0.867 ± 0.029	–
101 kPa, x2 = 0.0194	0.996 ± 0.032	0.867 ± 0.029	–
101.33 kPa, x1 = 0.0064	1.913 ± 0.015	–	–
101.33 kPa, x1 = 0.0122	1.881 ± 0.015	–	–
101.33 kPa, x1 = 0.0238	1.816 ± 0.014	–	–
101.33 kPa, x1 = 0.0358	1.756 ± 0.014	–	–
101.33 kPa, x1 = 0.0546	1.671 ± 0.013	–	–
101.33 kPa, x1 = 0.0803	1.567 ± 0.013	–	–
101.33 kPa, x1 = 0.1176	1.443 ± 0.012	–	–
101.33 kPa, x1 = 0.1632	1.333 ± 0.011	–	–
101.33 kPa, x1 = 0.2064	1.251 ± 0.01	–	–
101.33 kPa, x1 = 0.2619	1.177 ± 0.01	–	–
101.33 kPa, x1 = 0.2976	1.14 ± 0.009	–	–
101.33 kPa, x1 = 0.3254	1.119 ± 0.009	–	–
101.33 kPa, x1 = 0.3716	1.086 ± 0.009	–	–
101.33 kPa, x1 = 0.4168	1.065 ± 0.009	–	–
101.33 kPa, x1 = 0.4652	1.038 ± 0.009	–	–
101.33 kPa, x1 = 0.5109	1.024 ± 0.009	–	–
101.33 kPa, x1 = 0.5509	1.009 ± 0.008	–	–
101.33 kPa, x1 = 0.5982	0.994 ± 0.008	–	–
101.33 kPa, x1 = 0.6569	0.984 ± 0.008	–	–
101.33 kPa, x1 = 0.711	0.976 ± 0.008	–	–
101.33 kPa, x1 = 0.7757	0.975 ± 0.008	–	–
101.33 kPa, x1 = 0.819	0.976 ± 0.008	–	–
101.33 kPa, x1 = 0.8649	0.977 ± 0.008	–	–
101.33 kPa, x1 = 0.9094	0.984 ± 0.008	–	–
101.33 kPa, x1 = 0.9425	0.989 ± 0.008	–	–
101.33 kPa, x1 = 0.9722	0.988 ± 0.008	–	–

NCCCN + OCCCO
viscosity [mPa·s], 100 kPa
Conditions	293.15 K	298.15 K	303.15 K	308.15 K	313.15 K	318.15 K
x2 = 0.0488	2.48 ± 0.042	2.207 ± 0.037	1.884 ± 0.032	1.707 ± 0.029	1.513 ± 0.025	1.454 ± 0.024
x2 = 0.0977	3.266 ± 0.055	2.887 ± 0.048	2.418 ± 0.041	2.17 ± 0.036	1.888 ± 0.032	1.837 ± 0.031
x2 = 0.1467	4.261 ± 0.071	3.71 ± 0.062	3.095 ± 0.052	2.765 ± 0.046	2.395 ± 0.04	2.296 ± 0.038
x2 = 0.1958	5.561 ± 0.093	5.116 ± 0.086	3.988 ± 0.067	3.529 ± 0.059	3.071 ± 0.051	2.924 ± 0.049
x2 = 0.2451	7.784 ± 0.13	6.598 ± 0.11	5.35 ± 0.09	4.639 ± 0.078	3.944 ± 0.066	3.722 ± 0.062
x2 = 0.2945	10.96 ± 0.18	9.104 ± 0.15	7.198 ± 0.12	6.175 ± 0.1	5.145 ± 0.086	–
x2 = 0.3441	15.12 ± 0.25	12.35 ± 0.2	9.637 ± 0.16	8.272 ± 0.14	6.698 ± 0.11	–
x2 = 0.3937	20.61 ± 0.34	16.58 ± 0.27	12.78 ± 0.21	10.64 ± 0.18	8.698 ± 0.14	–
x2 = 0.4435	27.49 ± 0.45	22.54 ± 0.37	17.07 ± 0.28	14.02 ± 0.23	11.29 ± 0.19	–
x2 = 0.4934	37.54 ± 0.62	29.33 ± 0.48	21.87 ± 0.36	17.83 ± 0.29	14.16 ± 0.23	–
x2 = 0.5435	48.19 ± 0.79	37.19 ± 0.61	27.63 ± 0.45	22.21 ± 0.36	17.49 ± 0.29	–
x2 = 0.5937	59.37 ± 0.96	45.53 ± 0.74	33.45 ± 0.55	26.75 ± 0.44	20.06 ± 0.33	–
x2 = 0.644	68.67 ± 1.1	52.73 ± 0.84	38.69 ± 0.63	30.9 ± 0.5	24.13 ± 0.39	–
x2 = 0.6945	75.47 ± 1.3	57.65 ± 0.92	42.48 ± 0.69	34 ± 0.55	26.62 ± 0.43	–
x2 = 0.745	77.45 ± 1.3	60.06 ± 0.97	44.62 ± 0.73	35.77 ± 0.58	28.05 ± 0.46	–
x2 = 0.7958	76.36 ± 1.3	59.6 ± 0.96	44.73 ± 0.73	36.13 ± 0.59	28.42 ± 0.46	–
x2 = 0.8466	71.94 ± 1.2	56.84 ± 0.91	42.88 ± 0.7	34.89 ± 0.57	27.77 ± 0.45	–
x2 = 0.8976	66.38 ± 1.1	52.57 ± 0.83	40 ± 0.65	32.8 ± 0.53	26.28 ± 0.43	–
x2 = 0.9487	59.47 ± 0.96	47.41 ± 0.77	36.34 ± 0.59	30.05 ± 0.49	24.3 ± 0.4	–
